Laboratory results published in patent publication US8652804B2, “Transcription factor-based biosensors for detecting dicarboxylic acids” (priority 2011, dated 2014).

Columns and labels:
[1] = target: PcaR transcription factor (Pseudomonas putida, UniProt Q52154); details: for biosensor response (OD600 increase / tetracycline resistance) in words: plasmids S3/S2, 25 μg/ml tetracycline, 12 hours growth; for linear response range: plasmids S3/S2, E. coli K12, tetracycline medium, 12 hours, exogenously added dicarboxylic acid; for dynamic range (maximum difference in OD600 between fully induced samples and samples without dicarboxylic acid), ranking in words: plasmids S3/S2, compared among the four dicarboxylic acids
Sequence of PcaR transcription factor (Q52154 whole entry L6P/V7A/D9E/P10S/V11A/P15S/S20A/A21P/M23L/S96T/G197D/H210N/P212A): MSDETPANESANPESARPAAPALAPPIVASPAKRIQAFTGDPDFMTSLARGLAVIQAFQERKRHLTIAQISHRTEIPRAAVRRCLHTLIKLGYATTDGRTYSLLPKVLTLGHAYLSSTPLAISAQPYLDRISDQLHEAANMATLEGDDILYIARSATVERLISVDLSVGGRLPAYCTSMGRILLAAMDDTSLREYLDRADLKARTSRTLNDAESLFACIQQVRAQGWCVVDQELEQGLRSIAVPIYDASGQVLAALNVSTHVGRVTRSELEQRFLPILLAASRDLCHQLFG
Experimental: The X-axis is the concentration of exogenous dicarboxylic acid supplemented to the growth medium; the Y-axis is the cell culture density (OD600) after 12 hours growth in medium supplemented with 25 μg/ml tetracycline. E. coli strain “PcaR (+)” comprises plasmids S3/S2 and produces the tetracycline resistance protein upon exogenous addition of dicarboxylic acids. E. coli strain “PcaR (−)” comprises plasmids S1/S2 and produces a negative control protein, PcaI, upon exogenous addition of the indicated dicarboxylic acids.
Three plasmids were used to characterize biosensor response to exogenously added butanedioic acid, pentanedioic acid, hexanedioic acid and heptanedioic acid. The constructed plasmids employ the beta-keto hexanedioic acid and hexanedioic responsive transcription factor, PcaR, and the PcaR-responsive promoters, PPcaR (SEQ ID NO: 16) and PPcaIJ (SEQ ID NO:17), from Pseudomonas putida. Plasmid 51 harbors the P. putida gene pcaI under transcriptional control of it native PPcaIJ promoter on an E. coli vector backbone with ampicillin resistance marker and ColE1 origin of replication. Plasmid S3 harbors the tetA tetracycline resistance gene under control of the PcaIJ promoter on an E. coli vector backbone with ampicillin resistance marker and ColE1 origin of replication. Plasmid S2 harbors the pcaR transcription factor gene under control of its native PPcaR promoter on an E. coli vector backbone comprising a chloramphenicol resistance marker and pSC101 origin of replication.
E. coli strain K12 was co-transformed with either plasmids S1/S2 or S3/S2 and individual colonies isolated from LB agar plates (Cb^50, Cm^50). Colonies were grown in 25 ml LB broth (Cb^50, Cm^50) until reaching an optical density at 600 nm (OD600) of approximately 0.50, at which point cell stocks were prepared and stored at −80° C.; cell stocks were comprised of 0.5 ml cell culture and 0.5 ml of a 50% v/v glycerol solution.
Biosensor experiments were performed with butanedioic acid, pentanedioic acid, hexanedioic acid, and heptanedioic acid. An aliquot of biosensor cell stock was thawed and used to inoculate 50 ml of LB medium (Cb^50, Cm^50) in a 250 ml, baffled Erlenmeyer flask. Cultures were incubated for 2 hours at 37° C.; subsequently, 0.6 ml biosensor culture was added to 48-well plates prepared with 2.3 ml LB medium (Cb^50, Cm^50) supplemented with tetracycline and dicarboxylic acid at the desired concentration (n=4). Plates were than grown at 30° C. on an orbital titer plate shaker (Lab Line Instruments). Following 12 hours incubation, 200 μl samples were taken for OD600 measurement (Tecan Ultra).

[2] = tested on: E. coli DcuS-DcuR two-component system; details: plasmid S4 (PDctA-tetA), E. coli K12, 25 μg/ml tetracycline, 12 hours, exogenously added acid
Experimental: This example describes a dicarboxylic acid-responsive two-component system of the invention comprised of the E. coli DcuS-DcuR proteins expressed in a wild type E. coli K12 host.
(§1) E. coli strain K12 was transformed with plasmids S4, S5, or S6 and individual colonies isolated from LB agar plates (Cb^50). Colonies were grown in 25 ml LB broth (Cb^50) until reaching an optical density at 600 nm (OD600) of approximately 0.50, at which point cell stocks were prepared and stored at −80° C.; cell stocks comprised 0.5 ml cell culture and 0.5 ml of 50% v/v glycerol in water.
(§2) Biosensor experiments were performed with butanedioic acid. An aliquot of biosensor cell stock was thawed and used to inoculate 50 ml of LB medium (Cb^50) in a 250 ml, baffled Erlenmeyer flask. […] Plates were grown at 30° C. on an orbital titer plate shaker (Lab Line Instruments). Following 12 hours incubation, 200 μl samples were taken for OD600 measurement (Tecan Ultra).

[3] = tested on: E. coli DcuS-DcuR two-component system; details: plasmids S5 (PDcuB#21) or S6 (PDcuB#22), 25 μg/ml tetracycline
Experimental: as §1, §2

`O=C(O)CCC(=O)O` [butanedioic acid] was tested, and the “biosensor response (OD600 increase / tetracycline resistance) in words” value [1] was “dicarboxylic acid-dependent increases in tetracycline resistance”, the linear response range [1] was 1.5 to 4 mM and the “dynamic range of biosensor response” value [2] was “over 1.2 OD600 units”. The “growth of biosensor cultures versus acid concentration, in words” value [3] was “grew under all butanedioic acid concentrations tested”.
For `O=C(O)CCCC(=O)O` [pentanedioic acid], the “biosensor response (OD600 increase / tetracycline resistance) in words” value [1] was “dicarboxylic acid-dependent increases in tetracycline resistance” and the linear response range [1] was 1 to 2.5 mM.
In the case of `O=C(O)CCCCCC(=O)O` [heptanedioic acid], the “biosensor response (OD600 increase / tetracycline resistance) in words” value [1] is reported as “dicarboxylic acid-dependent increases in tetracycline resistance”, the linear response range [1] is reported as 0.5 to 6 mM and the “dynamic range (maximum difference in OD600 between fully induced samples and samples without dicarboxylic acid), ranking in words” value [1] is reported as “highest dynamic range”.
`O=C(O)CCCCC(=O)O` [hexanedioic acid] was tested, and the “biosensor response (OD600 increase / tetracycline resistance) in words” value [1] was “dicarboxylic acid-dependent increases in tetracycline resistance”, the linear response range [1] was 0.25 to 6 mM and the “dynamic range (maximum difference in OD600 between fully induced samples and samples without dicarboxylic acid), ranking in words” value [1] was “highest dynamic range”.
